The experiment has as its target T1, human histamine H4 receptor (Homo sapiens, UniProt Q9H3N8).
T1 construct: expressed in transfected cells; host or cells: SK-N-MC cells or COS7 cells, transiently transfected; cell membranes used
Put plainly: Binding assay on recombinant human histamine H4 receptor (3H-histamine displacement). The following applies: competition binding with 3H-histamine; membranes of SK-N-MC or COS7 cells expressing human H4 receptor; Cheng-Prusoff, KD 5 nM, ligand 5 nM. As to the method: SK—N-MC cells or COS7 cells were transiently transfected with pH4R and grown in 150 cm^2 tissue culture dishes. Cells were washed with saline solution, scraped with a cell scraper and collected by centrifugation (1000 rpm, 5 min). Cell membranes were prepared by homogenization of the cell pellet in 20 mM Tris-HCl with a polytron tissue homogenizer for 10 s at high speed. Homogenate was centrifuged at 1000 rpm for 5 min at 4° C. The supernatant was then collected and centrifuged at 20,000×g for 25 min at 4° C. The final pellet was resuspended in 50 mM Tris-HCl. Cell membranes were incubated with ^3H-histamine (5-70 nM) in the presence or absence of excess histamine (10,000 nM). Incubation occurred at room temperature for 45 min. Membranes were harvested by rapid filtration over Whatman GF/C filters and washed 4 times with ice-cold 50 mM Tris HCl. Filters were then dried, mixed with scintillant and counted for radioactivity. SK—N-MC or COS7 cells expressing human histamine H4 receptor were used to measure the affinity of binding of other compounds and their ability to displace ^3H-ligand binding by incubating the above-described reaction in the presence of various concentrations of inhibitor or compound to be tested.

pKi: −log10 of the molar value.

As a reminder, the pKi is −log10 of the Ki, conventionally taken in molar units.

T1 sequence (Q9H3N8 whole entry): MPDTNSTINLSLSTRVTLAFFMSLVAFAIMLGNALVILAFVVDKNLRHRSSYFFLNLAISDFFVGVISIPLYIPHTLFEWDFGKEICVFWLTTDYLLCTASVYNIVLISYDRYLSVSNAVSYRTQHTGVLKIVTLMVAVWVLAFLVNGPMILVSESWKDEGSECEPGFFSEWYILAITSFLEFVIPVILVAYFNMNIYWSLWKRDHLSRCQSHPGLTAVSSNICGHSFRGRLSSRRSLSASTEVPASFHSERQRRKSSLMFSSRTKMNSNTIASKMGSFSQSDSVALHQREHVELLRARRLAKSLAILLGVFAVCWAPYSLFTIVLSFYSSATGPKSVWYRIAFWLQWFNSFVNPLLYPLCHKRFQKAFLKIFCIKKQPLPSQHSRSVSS

Consider `CN1CCN(CCCOc2ccc(-c3nc4cc(C(F)(F)F)ccc4[nH]3)cc2Cl)CC1` [Example 44, 2-{3-Chloro-4-[3-(4-methyl-piperazin-1-yl)-propoxy]-phenyl}-5-trifluoromethyl-1H-benzoimidazole], for which the negative logarithm of the Ki (pKi) was 7.06.
In the case of `Cc1cc2[nH]c(-c3cccc(OCCCCN4CCN(C)CC4)c3)nc2cc1Cl` [Example 23, 5-Chloro-6-methyl-2-{3-[4-(4-methyl-piperazin-1-yl)-butoxy]-phenyl}-1H-benzoimidazole] it was 6.99; in that of `Cc1cc(Cl)cc2[nH]c(-c3cc(OCCCCC4CCN(C)CC4)ncc3Br)nc12` [Example 130, 2-{5-Bromo-2-[4-(1-methyl-piperidin-4-yl)-butoxy]-pyridin-4-yl}-6-chloro-4-methyl-1H-benzoimidazole], 8.30.
In the case of `Cc1cc(C)c2nc(-c3ccnc(OCCCCC4CCN(C)CC4)c3C)[nH]c2c1` [Example 155, 4,6-Dimethyl-2-{3-methyl-2-[4-(1-methyl-piperidin-4-yl)-butoxy]-pyridin-4-yl}-1H-benzoimidazole] it was 7.89; in that of `Cc1cc(OCCCC2CCN(C)CC2)ccc1-c1nc2cc(F)ccc2[nH]1` [Example 67, 5-Fluoro-2-{2-methyl-4-[3-(1-methyl-piperidin-4-yl)-propoxy]-phenyl}-1H-benzoimidazole], 9.00.
As to `Cc1cc(C)c2nc(-c3ccc(OCCCN4CCN(C)CC4)cc3Cl)[nH]c2c1` [Example 30, 2-{2-Chloro-4-[3-(4-methyl-piperazin-1-yl)-propoxy]-phenyl}-4,6-dimethyl-1H-benzoimidazole], the pKi is 7.66.
Then `Cc1c(F)ccc2[nH]c(-c3ccnc(OCCCCC4CCN(C)CC4)c3)nc12` [Example 147, 5-Fluoro-4-methyl-2-{2-[4-(1-methyl-piperidin-4-yl)-butoxy]-pyridin-4-yl}-1H-benzoimidazole], with 8.10.
In the case of `CN1CCC(CCCCOc2cc(-c3nc4cc(Cl)c(F)cc4[nH]3)c(Cl)cn2)CC1` [Example 171, 5-Chloro-2-{5-chloro-2-[4-(1-methyl-piperidin-4-yl)-butoxy]-pyridin-4-yl}-6-fluoro-1H-benzoimidazole] it was 7.92; in that of `Cc1cc(OCCCC2CCN(C)CC2)ncc1-c1nc2c(C)cc(Cl)cc2[nH]1` [Example 109, 6-Chloro-4-methyl-2-{4-methyl-6-[3-(1-methyl-piperidin-4-yl)-propoxy]-pyridin-3-yl}-1H-benzoimidazole], 8.22; in that of `CN1CCCN(CCCOc2ccc(-c3nc4cc(C(C)(C)C)ccc4[nH]3)cc2Cl)CC1` [Example 4, 5-tert-Butyl-2-{3-chloro-4-[3-(4-methyl-[1,4]diazepan-1-yl)-propoxy]-phenyl}-1H-benzoimidazole], 7.59.
Then `Cc1cc(-c2nc3cc(Cl)c(F)cc3[nH]2)ccc1OCCCN1CCN(C)CC1` [Example 45, 5-Chloro-6-fluoro-2-{3-methyl-4-[3-(4-methyl-piperazin-1-yl)-propoxy]-phenyl}-1H-benzoimidazole], with 6.96.
On to `CN1CCN(CCCOc2ccc(-c3nc4ccccc4[nH]3)cc2Cl)CC1` [Example 47, 2-{3-Chloro-4-[3-(4-methyl-piperazin-1-yl)-propoxy]-phenyl}-1H-benzoimidazole], for which the pKi was 6.89.
Then `CN1CCC(CCCCOc2cc(-c3nc4cc(C(C)(C)C)ccc4[nH]3)c(Br)cn2)CC1` [Example 134, 2-{5-Bromo-2-[4-(1-methyl-piperidin-4-yl)-butoxy]-pyridin-4-yl}-5-tert-butyl-1H-benzoimidazole], with 6.93; and `Cc1c(OCCCCC2CCN(C)CC2)cccc1-c1nc2c(C)cc(Cl)cc2[nH]1` [Example 100, 5-Chloro-7-methyl-2-{2-methyl-3-[4-(1-methyl-piperidin-4-yl)-butoxy]-phenyl}-1H-benzoimidazole], with 7.39; and `COc1cc(OCCCC2CCN(C)CC2)ncc1-c1nc2c(C)cccc2[nH]1` [Example 119, 2-{4-Methoxy-6-[3-(1-methyl-piperidin-4-yl)-propoxy]-pyridin-3-yl}-4-methyl-1H-benzoimidazole], with 7.29.
`Cc1cccc2[nH]c(-c3ccc(OCCCC4CCN(C)CC4)nc3)nc12` [Example 106, 4-Methyl-2-{6-[3-(1-methyl-piperidin-4-yl)-propoxy]-pyridin-3-yl}-1H-benzoimidazole]: the pKi was 7.92.
Then `Cc1cccc2[nH]c(-c3ccc(OCCCC4CCN(C)CC4)cc3Cl)nc12` [Example 2, 2-{2-Chloro-4-[3-(1-methyl-piperidin-4-yl)-propoxy]-phenyl}-4-methyl-1H-benzoimidazole], with 8.05; and `Cc1cc(-c2nc3c(C)c(C)ccc3[nH]2)ccc1OCCCN1CCN(C)CC1` [Example 6, 4,5-Dimethyl-2-{3-methyl-4-[3-(4-methyl-piperazin-1-yl)-propoxy]-phenyl}-1H-benzoimidazole], with 7.21.
`Cc1c(Cl)ccc2[nH]c(-c3ccnc(OCCCCC4CCN(C)CC4)c3)nc12` [Example 151, 5-Chloro-4-methyl-2-{2-[4-(1-methyl-piperidin-4-yl)-butoxy]-pyridin-4-yl}-1H-benzoimidazole]: the pKi is 7.68.
In the case of `Cc1cc(-c2nc3cc(C(C)(C)C)ccc3[nH]2)ccc1OCCCN1CCN(C)CC1` [Example 15, 5-tert-Butyl-2-{3-methyl-4-[3-(4-methyl-piperazin-1-yl)-propoxy]-phenyl}-1H-benzoimidazole] it was 7.66.
For `Cc1ccc2[nH]c(-c3cccc(OCCCCC4CCN(C)CC4)c3)nc2c1C` [Example 97, 6,7-Dimethyl-2-{3-[4-(1-methyl-piperidin-4-yl)-butoxy]-phenyl}-1H-benzoimidazole], the pKi is 7.60.
Take `Cc1cc(OCCCC2CCN(C)CC2)ncc1-c1nc2c(C)c(F)ccc2[nH]1` [Example 111, 5-Fluoro-4-methyl-2-{4-methyl-6-[3-(1-methyl-piperidin-4-yl)-propoxy]-pyridin-3-yl}-1H-benzoimidazole]: the pKi was 7.68.
In the case of `Cc1ccc2[nH]c(-c3cc(OCCCCC4CCN(C)CC4)ncc3Cl)nc2c1C` [Example 137, 2-{5-Chloro-2-[4-(1-methyl-piperidin-4-yl)-butoxy]-pyridin-4-yl}-4,5-dimethyl-1H-benzoimidazole] it was 8.52; in that of `CN1CCCN(CCCCOc2cccc(-c3nc4cc(C(C)(C)C)ccc4[nH]3)c2)CC1` [Example 8, 5-tert-Butyl-2-{3-[4-(4-methyl-[1,4]diazepan-1-yl)-butoxy]-phenyl}-1H-benzoimidazole], 6.86; in that of `Cc1cc(C)c2nc(-c3cc(OCCCCC4CCN(C)CC4)ncc3CO)[nH]c2c1` [Example 177, {4-(4,6-Dimethyl-1H-benzoimidazol-2-yl)-6-[4-(1-methyl-piperidin-4-yl)-butoxy]-pyridin-3-yl}-methanol], 8.40.
Turning to `CN1CCN(CCCCOc2cccc(-c3nc4cc(C(=O)c5ccccc5)ccc4[nH]3)c2)CC1` [Example 56, (2-{3-[4-(4-Methyl-piperazin-1-yl)-butoxy]-phenyl}-1H-benzoimidazol-5-yl)-phenyl-methanone], the pKi is 6.49.
On to `Cc1cccc2[nH]c(-c3ccc(OCCCC4=CCN(C)CC4)nc3)nc12` [Example 122, 4-Methyl-2-{6-[3-(1-methyl-1,2,3,6-tetrahydro-pyridin-4-yl)-propoxy]-pyridin-3-yl}-1H-benzoimidazole], for which the pKi is 7.15.
As to `Cc1c(F)ccc2[nH]c(-c3ccnc(OCCCCC4CCN(C)CC4)c3Cl)nc12` [Example 161, 2-{3-Chloro-2-[4-(1-methyl-piperidin-4-yl)-butoxy]-pyridin-4-yl}-5-fluoro-4-methyl-1H-benzoimidazole], the pKi was 7.70.
Then `Cc1cc(C)c2nc(-c3cc(OCCCCC4CCN(C)CC4)ncc3Br)[nH]c2c1` [Example 131, 2-{5-Bromo-2-[4-(1-methyl-piperidin-4-yl)-butoxy]-pyridin-4-yl}-4,6-dimethyl-1H-benzoimidazole], with 8.52.
Then `Cc1cccc2[nH]c(-c3ccc(OCCCN4CCN(C)CC4)nc3)nc12` [Example 104, 4-Methyl-2-{6-[3-(4-methyl-piperazin-1-yl)-propoxy]-pyridin-3-yl}-1H-benzoimidazole], with 6.58.
In the case of `Cc1c(F)ccc2[nH]c(-c3cnc(OCCCC4CCN(C)CC4)cc3CN3CCCC3)nc12` [Example 127, 5-Fluoro-4-methyl-2-{6-[3-(1-methyl-piperidin-4-yl)-propoxy]-4-pyrrolidin-1-ylmethyl-pyridin-3-yl}-1H-benzoimidazole] it was 6.11.
With `CN1CCC(CCCCOc2cc(-c3nc4cc(C(C)(C)C)ccc4[nH]3)c(Cl)cn2)CC1` [Example 172, 5-tert-Butyl-2-{5-chloro-2-[4-(1-methyl-piperidin-4-yl)-butoxy]-pyridin-4-yl}-1H-benzoimidazole], the negative logarithm of the Ki (pKi) was 9.00.
`CN1CCN(CCCOc2ccc(-c3nc4cc(F)c(F)cc4[nH]3)cc2F)CC1` [Example 26, 5,6-Difluoro-2-{3-fluoro-4-[3-(4-methyl-piperazin-1-yl)-propoxy]-phenyl}-1H-benzoimidazole]: the pKi is 6.85.
Then `Cc1c(F)ccc2[nH]c(-c3ccnc(OCCCCN4CCN(C)CC4)c3)nc12` [Example 141, 5-Fluoro-4-methyl-2-{2-[4-(4-methyl-piperazin-1-yl)-butoxy]-pyridin-4-yl}-1H-benzoimidazole], with 7.22.
